In patent US12558367B2, “Nicotinamide riboside and derivatives thereof in intravenous formulations and methods of use thereof” (ChromaDex Inc., priority 2023, dated 2026):
Entries after “also recorded” stand apart in the source; their conditions may differ.

Legend:
whole blood NAD+ = assay: NAD+ analysis of dried blood spots (DBS) by LC/MS; format: in vivo, human; parameters: Mean NAD: unit not given here; details: for Mean NAD: dried blood spot
Method: Finger punctures were conducted using a lancet. Blood was then applied to the circles on the dried blood spot (DBS) card and allowed to dry for a minimum of 3 hours. […] See, for example, FIG. 3. The use of dried blood spots (DBS) allowed for the analysis of NAD+ levels based upon samples that could be prepared at the clinic or by the study participants from home. While 36 of 37 participants in study 1 utilized the DBS at all time points, not all samples were analyzable. […] However, the model was significant for the 3-hour timepoint (p=0.010; […] At 6 hours, near-significant differences were observed between the NAD+ and NR IV group (t=1.99, p=0.055), and significant differences were observed between the NR IV and saline groups (t=−2.80, p=0.009), and between the NR IV and oral NR groups (t=−2.59, p=0.015). See, Tables 3-9 below. Tables 3-9 below reflect mean/SD for each group at each of the 7 timepoints. A basic ANOVA was conducted to investigate the data.

[1] = Energy/Fatigue Scale, randomized placebo-controlled pilot clinical study (Study 1); format: in vivo, human; details: for Mental Energy / Perceived Fatigue: possible scores 5-30; for General Energy / Motivation: possible scores 6-36; for Physical Energy: possible scores 7-42; for Emotional Energy: possible scores 8-48
Method: (§1) The present randomized, double-blinded, placebo-controlled, pilot clinical study was initiated with the primary aim of investigating the safety, tolerability, and the blood NAD+-boosting efficacy of an acute, single dose of NR IV (500 mg, test), NAD+ IV (500 mg, active comparator), oral NR (500 mg, bridge), and saline IV (placebo control) in generally healthy adult participants. The study consisted of two parts; data from 37 and 16 participants in the first and second phases, respectively, were analyzed.
(§2) This was a 2-part study. The first study was a 4-arm randomized, placebo-controlled parallel trial. The 3 IV arms were double-blinded, while the 4th arm involved oral administration making it naturally unblinded. Participants were randomized at a 10:10:10:6 ratio to intravenous placebo (saline), NAD^+, NR, or oral NR (oral). The second study was a randomized parallel design trial with two arms for the purpose of evaluating the actual differences in infusion rates in real time. Participants were randomized at a 1:1 ratio to intravenous NR or NAD^+.
(§3) Vials of 50 mg/ml of NR or NAD+ were prepared in 10 ml of sterile water by DCA Pharmacy (Franklin, Tennessee) by prescription, for research administration only, and maintained in refrigerated conditions until use. For participants who were randomized to the test group or to the active comparator group, the NR or NAD+ was added to 500 ml of normal saline (B Braun 0.9% sodium chloride injection USP, preservative free) prior to intravenous administration. Those randomly assigned to the saline group received 500 ml of normal saline. Participants that were randomly assigned to the oral arm were provided with 500 mg of NR which was taken with water.
(§4) To assess vital signs and subdomains on the sleep and energy scales, between-groups comparisons were assessed using analysis of covariance (ANCOVA) with baseline scores as the covariate and a Bonferroni correction. Levene's test was used to check and confirm the assumption of homogeneity of variances.
(§5) Tables A-D below reflect mean scores for each group at days 7 and 14. An ANCOVA was used to identify statistical significant differences, using baseline scores as the covariate which helps to account for the natural variation in psychological measurements, increasing the power of the study.
It is noted that the energy scale measures disruptions to energy levels; lower scores reflect greater levels of energy.

[2] = Vital signs post-intervention (Study 1); format: in vivo, human; details: single 500 mg dose, mean (SD)
Method: as §1
(§6) The safety of the IV infusion was evaluated using a combination of endpoints, including tolerable infusion rate, total number of adverse effects, participant vital signs, a complete blood count (CBC), a comprehensive metabolic panel (CMP), glucose and insulin levels, and the participant's self-reported subjective experience.
as §4
For the first study, data from 37 patients were available for intent to treat analysis; for the second study, data from 16 patients were available for intent to treat analysis.

[3] = Patient subjective experience and adverse event monitoring; format: in vivo, human
Method: as §6
Adverse event monitoring began on the first day of the study and continued for 14 days (study one) or 7 days (study two). Participants were instructed to notify the research staff of any new or unusual symptoms during the trial and open-ended questions during data collection solicited unexpected side effects.

[4] = Clinical chemistry (comprehensive metabolic panel); format: in vivo, human
Method: as §6
(§7) Between-groups comparisons of each outcome measured in the […] and CMP were evaluated using mixed between-within subjects ANOVA with the timepoint being the within subjects' factor and the group assignment as the between subjects factor. Mauchly's test of sphericity was used to confirm assumptions. Violations of the assumption of sphericity are addressed with the Greenhouse-Geisser correction.
(§8) Additional analyses were conducted using GraphPad Prism (Ver. 10.0.2). Statistical significance was determined as p<0.05, with comparisons of the test articles compared to saline or between group comparisons. 2way ANOVA with Tukey's multiple comparisons test with a single pooled variance was used to determine significance in hematology, clinical chemistry, and vitals. Time in chair was analyzed for study 1 by a one-way ANOVA with multiple comparisons, study 2 was analyzed by unpaired t-test. The baseline variable of age was analyzed for differences by one way ANOVA with multiple comparisons for study.

[5] = Sleep Scale, pilot clinical study (Study 1); format: in vivo, human; details: for Sleep Maintenance: possible scores 3-18; for Sleep Latency: possible scores 4-24; for Cognitive Effects / Daytime Sleepiness / Emotional Effects / Productivity / Sleep Inertia: possible scores 5-30
Method: as §1, §2, §3, §4, §5
For the sleep scale, the greatest improvements were seen on the scale of sleep latency, which refers to the ability to fall asleep at night, and sleep-related cognitive effects.

[6] = Tolerable infusion rate / infusion duration, Study 1; format: in vivo, human; details: 500 mg in 500 ml saline, start 20 drops per minute for 15 minutes, then rate by participant comfort, mean ± SD
Method: as §3
(§9) In the first study, participants began the infusion at a rate of 20 drops per minute for the first 15 minutes to ensure safety and comfort. […] Participants were closely monitored for the duration of the infusion, and the infusion rate was decreased, as applicable, upon participant request.
as §8, with “2way ANOVA with Tukey's multiple comparisons test with a single pooled variance was used to determine significance in hematology, clinical chemistry, and vitals.” left out

[7] = Tolerable infusion rate / infusion duration, Study 2 (IV line fully open); format: in vivo, human; details: males, rate decreased on request, mean (SD)
Description: as §2, with “NAD^+. […]” for “NAD^+.”
as §9
as §8, with “2way ANOVA with Tukey's multiple comparisons test with a single pooled variance was used to determine significance in hematology, clinical chemistry, and vitals.” left out

[8] = Hematology (complete blood count); format: in vivo, human; details: for mean corpuscular volume (MCV): in fL (unit assumed); for elevations in white blood cells and neutrophils: baseline to three-hours post-infusion
Method: as §6, §7, §8

blood NAD+ = details: cited from earlier work
[9] = Immediately Post-Intervention (10 minutes after infusion)
[10] = Energy/Fatigue Scale Day 7, mean score, lower = greater energy
[11] = Energy/Fatigue Scale Day 7, mean score, lower scores = greater energy, single 500 mg dose
[12] = Energy/Fatigue Scale Day 14, mean score, lower = greater energy
[13] = 3 hours post infusion, mean ± SD

## NC(=O)c1ccc[n+]([C@@H]2O[C@H](COP(=O)([O-])OP(=O)(O)OC[C@H]3O[C@@H](n4cnc5c(N)ncnc54)[C@H](O)[C@@H]3O)[C@@H](O)[C@H]2O)c1 [NAD+ IV, Nicotinamide Adenine Dinucleotide]
Whole blood NAD+; NR IV: at 3 hours relative to placebo and NAD+ IV, NAD+ IV: within 24 hours
  effect on whole blood NAD+: did not significantly elevate
Whole blood NAD+; at 24 hours
  increase in whole blood NAD+ relative to baseline: 2%
Whole blood NAD+; 3 Hours Post-Intervention
  Mean NAD: 19.20
Whole blood NAD+; 6 Hours Post-Intervention
  Mean NAD: 18.88
Whole blood NAD+; 24 Hours Post-Intervention
  Mean NAD: 19.73
Whole blood NAD+; Baseline Scores
  Mean NAD: 19.27
Whole blood NAD+; [9]
  Mean NAD: 19.16
[1]; [10]
  Mental Energy: 13.13
  Perceived Fatigue: 15.75
  General Energy: 20.63
  Motivation: 11.13
  Emotional Energy: 31.75
[1]; [11]
  Physical Energy: 19.63
[1]; [12]
  Mental Energy: 14.50
  Perceived Fatigue: 15.50
  General Energy: 20.13
  Motivation: 13.50
  Physical Energy: 18.50
  Emotional Energy: 29.63
[2]
  Post-intervention diastolic blood pressure: 73.40 (SD: 13.15) mmHg
  Post-intervention heart rate: 68.40 (SD: 8.10) beats per minute
  Post-intervention systolic blood pressure: 117.20 (SD: 14.54) mmHg
[3]; during IV infusion
  comfort level described by majority of patients: low
[3]; fraction of patients, nursing staff report
  patients having a bowel movement during the IV: Approximately half
[3]; patient self-report, 500 mg IV
  sensations / adverse experiences reported during infusion: anxiety, headaches, nausea, and sudden urges to have a bowel movement or diarrhea; also recorded: nausea, headache, diarrhea, and muscle tightness
[4]; 3- and 24-hour timepoints
  significant differences in bilirubin and AST (indicators of liver function): not detected
[4]; Study 1, mean ± SD
  change in globulin from baseline to 24 hours post infusion: 0.1300±0.1829
[4]; Study 1, mean ± SD, not deemed clinically significant
  estimated glomerular filtration rate change from baseline to 3 hours post infusion: 1.400±8.462
[5]; Sleep Scale Day 7, mean score
  Sleep Maintenance: 8.88
  Sleep Latency: 11.63
  Cognitive Effects: 15.50
  Daytime Sleepiness: 17.63
  Emotional Effects: 15.75
  Productivity: 13.86
  Sleep Inertia: 17.38
[5]; Sleep Scale Day 14, mean score
  Sleep Maintenance: 8.25
  Sleep Latency: 10.75
  Cognitive Effects: 15.63
  Daytime Sleepiness: 16.88
  Emotional Effects: 16.38
  Productivity: 13.25
  Sleep Inertia: 16.00
[6]
  infusion intake, average: 182.9 ± 55.93 min
[7]
  average infusion rate (total infusion time): 98.88 (SD: 46.70) minutes
[8]; [13]
  White blood cell count: 6.990±2.386 Thousand/microliter
  absolute neutrophils: 4724±2159 Cells/microliter
  mean corpuscular volume (MCV): 87.38±3.991
[8]; 24 hours post infusion, mean ± SD
  mean corpuscular volume (MCV): 87.34±3.035
[8]
  elevations in white blood cells and neutrophils: clinically significant elevations in white blood cells and increases in absolute and percentage neutrophils
[8]; baseline, mean ± SD
  mean corpuscular volume (MCV): 88.43±3.772

## NC(=O)c1ccc[n+]([C@@H]2O[C@H](COP(=O)([O-])O)[C@@H](O)[C@H]2O)c1 [NMN, Nicotinamide mononucleotide]
Blood NAD+; 300 mg in 100 mL saline, 5 mL/min IV, 10 healthy Japanese adults (Kimura et al.)
  safety and tolerability: safe and well-tolerated
Blood NAD+; intravenous NMN (Kimura et al.)
  blood NAD+ levels: elevated blood NAD+ levels at multiple timepoints relative to baseline

## NC(=O)c1ccc[n+]([C@@H]2O[C@H](CO)[C@@H](O)[C@H]2O)c1.[Cl-] [oral NR, nicotinamide riboside chloride]
Whole blood NAD+; 3 Hours Post-Intervention
  Mean NAD: 18.54
Whole blood NAD+; 6 Hours Post-Intervention
  Mean NAD: 18.01
Whole blood NAD+; 24 Hours Post-Intervention
  Mean NAD: 23.25
Whole blood NAD+; Baseline Scores
  Mean NAD: 18.34
Whole blood NAD+; [9]
  Mean NAD: 19.16
[1]; [10]
  Mental Energy: 14.90
  Perceived Fatigue: 14.10
  General Energy: 23.20
  Motivation: 12.20
  Emotional Energy: 32.50
[1]; [11]
  Physical Energy: 19.80
[1]; [12]
  Mental Energy: 15.67
  Perceived Fatigue: 16.44
  General Energy: 23.67
  Motivation: 12.56
  Physical Energy: 20.00
  Emotional Energy: 32.44
[2]
  Post-intervention diastolic blood pressure: 71.00 (SD: 6.24) mmHg
  Post-intervention heart rate: 65.78 (SD: 7.95) beats per minute
  Post-intervention systolic blood pressure: 108.56 (SD: 9.08) mmHg
[3]; intervention and follow-up period up to 14 days
  safety / attributable adverse events: safe and well tolerated
[4]; Study 1
  clinically relevant changes in comprehensive metabolic panel or CBC with differential: did not display any clinically relevant changes
[5]; Sleep Scale Day 14, mean score
  Sleep Maintenance: 7.50
  Sleep Latency: 10.00
  Cognitive Effects: 16.36
  Daytime Sleepiness: 15.63
  Emotional Effects: 20.50
  Productivity: 12.88
  Sleep Inertia: 15.88
[8]
  elevations in white blood cells and neutrophils: not observed
